# Source: patent US5621002A, “Prodrugs for enzyme mediated activation” (Behringwerke Aktiengesellschaft, priority 1993, dated 1997)
# T1: antibody-β-glucuronidase fusion protein (Homo sapiens, UniProt P08236)
# T1 construct: antibody part only targets
# T1 sequence (P08236 23-651): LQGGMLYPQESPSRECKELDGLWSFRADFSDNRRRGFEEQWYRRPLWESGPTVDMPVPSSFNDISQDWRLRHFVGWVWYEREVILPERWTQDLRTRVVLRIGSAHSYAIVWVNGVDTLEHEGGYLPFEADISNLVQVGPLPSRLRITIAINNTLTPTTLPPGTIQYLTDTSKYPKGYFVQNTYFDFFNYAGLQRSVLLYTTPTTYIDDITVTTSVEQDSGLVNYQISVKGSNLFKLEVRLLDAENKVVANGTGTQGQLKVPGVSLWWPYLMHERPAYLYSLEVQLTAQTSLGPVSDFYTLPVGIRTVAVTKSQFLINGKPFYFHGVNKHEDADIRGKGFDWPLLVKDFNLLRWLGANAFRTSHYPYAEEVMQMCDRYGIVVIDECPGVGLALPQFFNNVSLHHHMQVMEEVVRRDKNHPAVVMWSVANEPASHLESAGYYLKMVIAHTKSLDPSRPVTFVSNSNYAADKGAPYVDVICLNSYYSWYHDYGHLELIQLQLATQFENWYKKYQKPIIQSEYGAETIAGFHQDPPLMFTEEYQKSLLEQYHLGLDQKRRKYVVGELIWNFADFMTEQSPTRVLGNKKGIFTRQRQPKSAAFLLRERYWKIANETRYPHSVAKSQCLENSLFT
# Legend:
# [1] = target: T1, antibody-β-glucuronidase fusion protein; assay: Km and Vmax determination, enzymatic cleavage by fusion protein monitored by HPLC; format: biochemical; settings: 100 mM phosphate buffer + 1 mg/ml BSA, pH 7.2, 37° C., substrate 10-10000 μM
# Protocol: (§1) Comparison of Km- and V max-values of natural and improved substrate for antibody β-glucuronidase fusion protein
# (§2) For Km- and Vmax-determination 3'-N-[4-(beta-D-Glucuronyloxy)-3-nitro-benzyloxycarbonyl]-doxorubicin and prodrug A should be diluted in the range of 10-10000 μM in 100 mM phosphate buffer+1 mg/ml BSA, pH 7.2. Enzymatic cleavage should be done with constant amounts of fusion protein at 37° C. Cleavage can be monitored by HPLC analysis. Km- and Vmax-values can be calculated with the software program GraFit 2.0 (Erithacus Software Ltd.).
# (§3) The HPLC apparatus consisted of an autosampler (Abimed, model 231), an automatic sample extraction system (AASP, Varian) equipped with minicartridges containing C 18 reversed phase silica gel (Analytichem), a gradient pump (Gynkotek, model 480), a fluorescence detector (Shimazdu RF 535, Excitation: 495 nm, Emission: 560 nm). Before sample injection the minicartridges were preconditioned with 2.5 ml methanol and 1.5 ml phosphate buffer, pH 6. Analytes retained on the reversed phase silica gel were then eluted by valve switching and connection of the minicartridges to the mobile phase. Chromatography was performed on reversed phase material (Nucleosil C 18, 5 μm particle size, 120 mm length, 4,5 mm I.D.) and gradient elution. Elution was done by a gradient composed of 2 components (A: 20 mM phosphate, pH 3, B: acetonitrile). […]
# [2] = substrate: [H][C@]1(O[C@H]2C[C@H](NC(=O)OCc3ccc(O[C@@H]4O[C@H](C(=O)O)[C@@H](O)[C@H](O)[C@H]4O)c([N+](=O)[O-])c3)[C@H](O)[C@H](C)O2)C[C@](O)(C(=O)CO)Cc2c(O)c3c(c(O)c21)C(=O)c1c(OC)cccc1C3=O; assay: as above; format: biochemical, human; settings: other: 100 mM phosphate buffer + 1 mg/ml BSA, pH 7.2, 37° C., substrate 10-10000 μM
# Protocol: as §1, §2, §3
Km [1] [µM],Vmax [1],Molecule,Km [2] [µM],Vmax [2] [nmol/µg/min]
< 500,~ 0.635 nmol/μg/min,COc1cccc2c1C(=O)c1c(O)c3c(c(O)c1C2=O)C[C@@](O)(C(=O)CO)C[C@@H]3O[C@H]1C[C@H](NC(=O)OCc2ccc(O[C@@H]3O[C@H]([C@H](O)C(=O)O)[C@H](O)[C@H]3O)c([N+](=O)[O-])c2)[C@H](O)[C@H](C)O1 [Prodrug A],,
,,"antibody-β-glucuronidase fusion protein (Homo sapiens) (protein, antibody part only targets) LQGGMLYPQESPSRECKELDGLWSFRADFSDNRRRGFEEQWYRRPLWESGPTVDMPVPSSFNDISQDWRLRHFVGWVWYEREVILPERWTQDLRTRVVLRIGSAHSYAIVWVNGVDTLEHEGGYLPFEADISNLVQVGPLPSRLRITIAINNTLTPTTLPPGTIQYLTDTSKYPKGYFVQNTYFDFFNYAGLQRSVLLYTTPTTYIDDITVTTSVEQDSGLVNYQISVKGSNLFKLEVRLLDAENKVVANGTGTQGQLKVPGVSLWWPYLMHERPAYLYSLEVQLTAQTSLGPVSDFYTLPVGIRTVAVTKSQFLINGKPFYFHGVNKHEDADIRGKGFDWPLLVKDFNLLRWLGANAFRTSHYPYAEEVMQMCDRYGIVVIDECPGVGLALPQFFNNVSLHHHMQVMEEVVRRDKNHPAVVMWSVANEPASHLESAGYYLKMVIAHTKSLDPSRPVTFVSNSNYAADKGAPYVDVICLNSYYSWYHDYGHLELIQLQLATQFENWYKKYQKPIIQSEYGAETIAGFHQDPPLMFTEEYQKSLLEQYHLGLDQKRRKYVVGELIWNFADFMTEQSPTRVLGNKKGIFTRQRQPKSAAFLLRERYWKIANETRYPHSVAKSQCLENSLFT",1300,0.635
